Reference: ChEMBL document CHEMBL5505992, “Novel membrane-targeting isoxanthohumol-amine conjugates for combating methicillin-resistant Staphylococcus aureus (MRSA) infections” (Eur J Med Chem, 2024)
Calls of active or inactive are those of the source. The calls are words filed in the database; no cut-off is given here.

Experiments:
[1] = system: Staphylococcus aureus; experiment: Bactericidal activity against methicillin-resistant Staphylococcus aureus clinical isolate MRSA-16 assessed as bacterial killing measured upto 8 hrs by time kill assay; type: functional, organism-based
[2] = system: Staphylococcus aureus; experiment: Induction of morphological changes in methicillin-resistant Staphylococcus aureus clinical isolate MRSA-16 assessed as ruptured cell surface at 16 ug/ml incubated for 4 hrs by SEM analysis; type: functional, organism-based; details: dose 16.0 µg/ml
[3] = system: Cell membrane; experiment: Induction of cell membrane permeability in methicillin-resistant Staphylococcus aureus clinical isolate MRSA-16 assessed as dead cells (Q1 region) at 16 ug/ml incubated for 2 hrs by SYTO 9 and PI staining based flow cytometry analysis (reference value: 0.00%); type: cell membranes; details: dose 16.0 µg/ml
[4] = system: Cell membrane; experiment: Induction of cell membrane permeability in methicillin-resistant Staphylococcus aureus clinical isolate MRSA-16 assessed as decrease in intact cells (Q3 region) at 8 ug/ml incubated for 2 hrs by SYTO 9 and PI staining based flow cytometry analysis (reference value: 99.07%); type: cell membranes; parameters: scale not given: the % may be the effect or the level left; details: dose 8.0 µg/ml
[5] = system: Cell membrane; experiment: Induction of cell membrane permeability in methicillin-resistant Staphylococcus aureus clinical isolate MRSA-16 assessed as decrease in intact cells (Q3 region) at 16 ug/ml incubated for 2 hrs by SYTO 9 and PI staining based flow cytometry analysis (reference value: 99.07%); type: cell membranes; parameters: scale not given: the % may be the effect or the level left; details: dose 16.0 µg/ml
[6] = system: Cell membrane; experiment: Induction of cell membrane permeability in methicillin-resistant Staphylococcus aureus clinical isolate MRSA-16 assessed as decrease in intact cells (Q3 region) at 32 ug/ml incubated for 2 hrs by SYTO 9 and PI staining based flow cytometry analysis (reference value: 99.07%); type: cell membranes; parameters: scale not given: the % may be the effect or the level left; details: dose 32.0 µg/ml
[7] = system: Staphylococcus aureus; experiment: Antibacterial activity against methicillin-resistant Staphylococcus aureus in presence of peptidoglycan; type: functional
[8] = system: Staphylococcus aureus; experiment: Antibacterial activity against methicillin-resistant Staphylococcus aureus in presence of phosphatidylglycerol; type: functional, organism-based
[9] = system: Cell membrane; experiment: Disruption of cell membrane in methicillin-resistant Staphylococcus aureus clinical isolate MRSA-16 assessed as increase in intracellular protein leakage incubated for 4 hrs by microspectrophotometer analysis; type: cell membranes
[10] = Toxicity in Kunming mouse assessed as animal death at 20 mg/kg, sc measured after 24 hrs; type: organism-based; details: in vivo
[11] = Toxicity in Kunming mouse assessed as effect on skin at 10 mg/kg, sc measured after 24 hrs by H and E staining based analysis; type: organism-based; details: in vivo
[12] = Toxicity in Kunming mouse assessed as histopathological abnormalities in lung at 10 mg/kg, sc measured after 24 hrs by H and E staining based analysis; type: organism-based; details: in vivo
[13] = Toxicity in Kunming mouse assessed as histopathological abnormalities in kidney at 10 mg/kg, sc measured after 24 hrs by H and E staining based analysis; type: organism-based; details: in vivo
[14] = system: Staphylococcus aureus; experiment: Antibacterial activity against methicillin-resistant Staphylococcus aureus infected in Kunming mouse skin infection model assessed as effect on skin abscesses in subcutaneous tissue at 8 mg/kg,sc measured after 24 hrs; type: functional, organism-based
[15] = system: Staphylococcus aureus; experiment: Antibacterial activity against methicillin-resistant Staphylococcus aureus infected in Kunming mouse skin infection model assessed as reduction in inflammatory cells at 4 to 8 mg/kg,sc measured after 24 hrs; type: functional, organism-based; details: dose 4-8 mg/kg
[16] = system: Staphylococcus aureus; experiment: Antibacterial activity against methicillin-resistant Staphylococcus aureus infected in Kunming mouse skin infection model assessed as appearance of small number of infiltrated inflammatory cells in subcutaneous tissue at 8 mg/kg,sc measured after 24 hrs; type: functional, organism-based
[17] = system: Staphylococcus aureus; experiment: Antibacterial activity against methicillin-resistant Staphylococcus aureus infected in Kunming mouse skin infection model assessed as decrease in bacterial load at 4 mg/kg,sc measured after 24 hrs relative to control; type: functional; parameters: scale not given: the % may be the effect or the level left
[18] = system: Staphylococcus aureus; experiment: Antibacterial activity against methicillin-resistant Staphylococcus aureus infected in Kunming mouse skin infection model assessed as decrease in bacterial load at 8 mg/kg,sc measured after 24 hrs; type: functional
[19] = system: Staphylococcus aureus; experiment: Antibacterial activity against methicillin-resistant Staphylococcus aureus infected in Kunming mouse skin infection model assessed as decrease in bacterial load at 4 mg/kg,sc measured after 24 hrs; type: functional
[20] = Toxicity in Kunming mouse assessed as effect on heart at 4 to 8 mg/kg, sc measured after 24 hrs by H and E staining based analysis; type: organism-based; details: in vivo, dose 4-8 mg/kg
[21] = Toxicity in Kunming mouse assessed as effect on spleen at 4 to 8 mg/kg, sc measured after 24 hrs by H and E staining based analysis; type: organism-based; details: in vivo, dose 4-8 mg/kg
[22] = Toxicity in Kunming mouse assessed as histopathological abnormalities in lung at 4 to 8 mg/kg, sc measured after 24 hrs by H and E staining based analysis; type: organism-based; details: in vivo, dose 4-8 mg/kg
[23] = Hemolytic activity in sheep erythrocytes incubated for 1 hr by absorbance based analysis; type: toxicity, cell-based, Ovis aries, Erythrocyte

CCCC[N+](C)(CCCC)CCCCCOc1ccc(C2CC(=O)c3c(OC)cc(OCCCCC[N+](C)(CCCC)CCCC)c(CC=C(C)C)c3O2)cc1.[I-].[I-] (stereo not drawn)
Activity [1]: Dose-Dependent Effect
Activity [2]: Active
Activity [3]: 28.4%
Activity [4]: 39.7%
Activity [5]: 1.58%
Activity [6]: 0.02%
MIC [7]: 32 µg/mL
Activity [8]: Active
Activity [9]: Active
Activity [10]: Toxic
Activity [11]: Non-Toxic
Activity [12]: Non-Toxic
Activity [13]: Non-Toxic
Activity [14]: inactive
Activity [15]: Active
Activity [16]: Active
Activity [17]: 99.86%
Activity [18]: 5 log10CFU/g
Activity [19]: 3.2 log10CFU/g
Activity [20]: Non-Toxic
Activity [21]: Non-Toxic
Activity [22]: Non-Toxic
HC50 at 1 h [23]: > 1280 µg/mL
